{"source": "patent US5795899A", "about": "“Soluble salts of 4-amino-2-(4,4-dimethylimidazolidin-2-on-1-yl) pyrimidine-5-carboxylic acid N-methyl-N-(3-trifluoromethylphenyl)-amide, a process for the preparation thereof, the use thereof as pharmaceuticals and starting materials” (Hoechst Aktiengesellschaft, priority 1992, dated 1998)", "key": {"LDL receptor mRNA": {"tested_on": "LDL receptor mRNA", "test": "LDL receptor mRNA expression in vivo in rat livers (Northern blot)", "conditions": "6 hours after single oral dose of 30 mg/kg, FIG. 1", "protocol": "Liver tissue was removed at the stated time after a single oral dose of 30 mg/kg of the hydrochloride of compound I and was shock-frozen in liquid nitrogen.\nThe Northern blot technique was used to determine the relative LDL receptor MRNA levels. The LDL receptor MRNA level is increased about 2.5-fold after six hours.\nThe mRNA was prepared by the method described by Chomczynski, P. and Sacchi, N. in Anal. Biochem. 162, 156 (1987). In the case of organs (such as, for example, liver), the deep-frozen tissue was previously homogenized in a mortar on dry ice, and the mRNA was further concentrated by means of oligo dT by standard methods (compare Sambrook, J., Fritsch, E. F. and Maniatis, T., Molecular Cloning, second edition, Cold Spring Harbor (1989); this collection of methods also includes descriptions of all the other relevant standard processes of molecular biology used here). […] The filters were subsequently exposed on Cronex 4 films (Dupont) in the presence of an intensifying screen at -70° C. overnight or for up to 14 days, and the hybridization signals were quantified from the intensity of blackening of the film using a commercially available laser densitometer. Subsequently, the quotient was determined from the intensity of the LDL receptor band and of the actin band as internal standard to correct for variations in yield. […]"}, "[1]": {"tested_on": "bronchial carcinoma cells, A 549", "test": "MTT assay, inhibition of cell proliferation, A 549", "type": "cell-based", "conditions": "Homo sapiens, A549; 72 hours incubation", "protocol": "(§1) The reduced inhibitory effect on cell proliferation was tested on exponentially growing animal (mouse leukemia cells, L 1210) and human (bronchial carcinoma cells, A 549; colon carcinoma cells, HT 29) tumor cells. This entailed the tumor cells being incubated in RPMI standard medium with various concentrations of the test substances for 72 hours. Cell incubations only in fresh medium served as control. Incubations were set up in quadruplet. […] After incubation for a further 7 to 24 hours, the cell supernatant was carefully removed and the formazan dye in the cells was solubilized by adding DMSO and measured quantitatively by photometry at 492 nm. The ratio of the extinction of the substance incubations to the control incubation was quantified. The coefficient of variation in each incubation series was less than 15%. The following Table 6 indicates the IC50 values (IC50 [μg/ml] is the concentration of the test substance per ml which is necessary for 50% inhibition) from these investigations."}, "physchem": {"test": "physchem", "conditions": "water"}, "[2]": {"tested_on": "mouse leukemia cells, L 1210", "test": "MTT assay, inhibition of cell proliferation, L1210", "type": "cell-based", "conditions": "72 hours incubation", "protocol": "as §1"}, "HMG-CoA reductase": {"target": "T1, HMG-CoA reductase (Rattus norvegicus, UniProt P51639)", "T1 construct": "partially purified HMG-COA reductase from rat liver; from tissue; host or cells: rat liver (partially purified enzyme)", "T1 sequence (P51639 1-887)": "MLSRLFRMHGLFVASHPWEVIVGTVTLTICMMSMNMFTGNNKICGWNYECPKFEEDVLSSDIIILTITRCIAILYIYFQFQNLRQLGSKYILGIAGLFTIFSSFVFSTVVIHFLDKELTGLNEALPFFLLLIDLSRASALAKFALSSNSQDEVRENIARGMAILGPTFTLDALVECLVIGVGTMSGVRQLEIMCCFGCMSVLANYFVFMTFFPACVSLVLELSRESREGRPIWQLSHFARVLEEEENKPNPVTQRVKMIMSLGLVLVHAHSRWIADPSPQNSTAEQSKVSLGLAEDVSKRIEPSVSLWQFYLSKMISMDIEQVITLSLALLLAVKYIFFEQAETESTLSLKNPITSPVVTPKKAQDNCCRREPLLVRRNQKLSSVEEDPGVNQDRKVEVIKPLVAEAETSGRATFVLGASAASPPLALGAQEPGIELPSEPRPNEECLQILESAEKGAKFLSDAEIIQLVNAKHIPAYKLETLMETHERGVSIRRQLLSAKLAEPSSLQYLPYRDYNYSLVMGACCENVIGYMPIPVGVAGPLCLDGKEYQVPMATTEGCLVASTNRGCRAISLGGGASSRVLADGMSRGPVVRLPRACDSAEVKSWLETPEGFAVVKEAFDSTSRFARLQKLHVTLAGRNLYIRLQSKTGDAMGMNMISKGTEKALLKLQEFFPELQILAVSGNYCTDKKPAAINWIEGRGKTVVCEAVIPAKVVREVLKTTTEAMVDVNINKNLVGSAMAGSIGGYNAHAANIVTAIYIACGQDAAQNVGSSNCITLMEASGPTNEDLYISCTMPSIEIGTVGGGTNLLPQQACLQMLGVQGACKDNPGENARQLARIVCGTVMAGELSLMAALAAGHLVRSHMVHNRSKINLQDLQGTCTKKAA", "test": "HMG-CoA reductase determination in vitro on partially purified HMG-CoA reductase from rat liver", "type": "biochemical", "conditions": "10^-5 M; variation 10%"}, "[3]": {"tested_on": "carbohydrate-induced hypertriglyceridemia", "test": "Inhibition of carbohydrate-induced hypertriglyceridemia", "type": "in vivo, male Sprague-Dawley rats", "conditions": "1 mg/kg/day", "protocol": "Groups of in each case 10 male Sprague-Dawley rats (supplied by the breeder Mollegard with a weight of 250-280 g) received on each of 4 consecutive days one administration of the compound dissolved in PEG 400 by gavage. In addition, after the 3rd administration and 8 and 24 hours later they received 2.5 g of fructose/kg, likewise by gavage. Moreover, after the 3rd administration of product, 50% strength fructose solution was offered to them as drinking water ad libitum, and the food was withdrawn. Retroorbital removal of blood, from which the serum was obtained for the triglyceride determination and VLDL preparation in the ultracentrifuge (flotation at d=1.006), took place 3 hours after the last product/fructose administration. The food received by the animals from 1 week before the 1st administration and up to the 3rd administration was a diet with 40% casein in the feed meal.\nThe animals develop, as a result of this treatment, a hypertriglyceridemia which approximately corresponds to Fredrickson phenotype IV in humans. The serum triglycerides of the normal animals increased from 0.54 to 1.1 mmol/l, and the VLDL triglycerides from 0.67 to 1.81."}, "[4]": {"tested_on": "colon carcinoma cells, HT 29", "test": "MTT assay, inhibition of cell proliferation, HT 29", "type": "cell-based", "conditions": "Homo sapiens, 72 hours incubation", "protocol": "as §1"}}}
{"smiles": "CN(C(=O)c1cnc(N2CC(C)(C)NC2=O)nc1N)c1cccc(C(F)(F)F)c1.Cl", "note": "[Compound I as hydrochloride, 4-amino-2-(4,4-dimethyl-2-oxo-1-imidazolidinyl)pyrimidine-5-carboxylic acid N-methyl-N-(3-trifluoromethylphenyl)amide hydrochloride]", "values": [{"measurement": "Increase in LDL receptor mRNA level in rat liver", "setting": "LDL receptor mRNA", "result": "about 2.5 -fold"}, {"measurement": "IC50", "setting": "[1]", "result": "> 100", "unit": "µg/mL"}, {"measurement": "solubility", "setting": "physchem", "result": 430, "unit": "mg/mL"}, {"measurement": "IC50", "setting": "[2]", "result": 13.4, "unit": "µg/mL"}, {"measurement": "Influence on HMG-CoA reductase enzyme activity compared with control incubations", "setting": "HMG-CoA reductase", "result": "does not influence"}, {"measurement": "Inhibition of the increase in the VLDL triglycerides (in words)", "setting": "[3]", "result": "almost one half"}, {"measurement": "IC50", "setting": "[4]", "result": "> 100", "unit": "µg/mL"}]}
